Experimental findings from ChEMBL document CHEMBL3792312, “Synthesis and docking studies of pyrazine-thiazolidinone hybrid scaffold targeting dormant tuberculosis” (Bioorg Med Chem Lett, 2016) are described below.

The subject of assay [1] is Mycobacterium tuberculosis. Nature of the assay: Antitubercular activity against dormant Mycobacterium tuberculosis H37Ra after 12 days by XTT-Menadione assay. It is filed as functional, organism-based. The settings on record: 288 h. Background: Tetrazolium assays rely on reduction of a dye to a coloured formazan, in cell work by metabolically active cells.
Assay [2] has as its system Bacillus subtilis. Nature of the assay: Antibacterial activity against Bacillus subtilis at 30 ug after 12 hrs. It is filed as functional.
Assay [3] concerns Bacillus subtilis. Briefly: Antibacterial activity against Bacillus subtilis at 10 ug after 12 hrs. It is filed as functional.
The subject of assay [4] is Mycobacterium tuberculosis. Briefly: Antitubercular activity against dormant Mycobacterium tuberculosis H37Ra at 3 ug after 12 days by XTT-Menadione assay. It is filed as functional.
Assay [5] relates to Staphylococcus aureus. Briefly: Antibacterial activity against Staphylococcus aureus at 10 ug after 12 hrs. It is filed as functional.
The test system of assay [6] is Pseudomonas fluorescens. Briefly: Antibacterial activity against Pseudomonas fluorescens at 30 ug after 8 hrs. It is filed as functional.
Assay [7] concerns Escherichia coli. Nature of the assay: Antibacterial activity against Escherichia coli at 3 ug after 8 hrs. It is filed as functional.
For assay [8], the system named is Escherichia coli. Briefly: Antibacterial activity against Escherichia coli at 10 ug after 8 hrs. It is filed as functional.
For assay [9], the system named is Escherichia coli. Briefly: Antibacterial activity against Escherichia coli at 30 ug after 8 hrs. It is filed as functional.
For assay [10], the system named is Mycobacterium tuberculosis. Nature of the assay: Antitubercular activity against dormant Mycobacterium tuberculosis H37Ra at 10 ug after 12 days by XTT-Menadione assay. It is filed as functional.
Assay [11] has as its system Pseudomonas fluorescens. Nature of the assay: Antibacterial activity against Pseudomonas fluorescens at 3 ug after 8 hrs. It is filed as functional.
Assay [12] deals with Bacillus subtilis. Briefly: Antibacterial activity against Bacillus subtilis at 3 ug after 12 hrs. It is filed as functional.
For assay [13], the system named is Mycobacterium tuberculosis. Nature of the assay: Antitubercular activity against dormant Mycobacterium tuberculosis H37Ra at 30 ug after 12 days by XTT-Menadione assay. It is filed as functional.
Assay [14] deals with Pseudomonas fluorescens. Briefly: Antibacterial activity against Pseudomonas fluorescens at 10 ug after 8 hrs. It is filed as functional.
In assay [15] the test system is Staphylococcus aureus. Briefly: Antibacterial activity against Staphylococcus aureus at 3 ug after 12 hrs. It is filed as functional.
Assay [16] concerns Staphylococcus aureus. Nature of the assay: Antibacterial activity against Staphylococcus aureus at 30 ug after 12 hrs. It is filed as functional.
In assay [17] the test system is Mycolicibacterium smegmatis. Nature of the assay: Antitubercular activity against dormant Mycobacterium smegmatis MC2 155 at 30 ug after 12 days by XTT-Menadione assay. It is filed as functional, str. MC2 155.
Assay [18] concerns Mycolicibacterium smegmatis. Nature of the assay: Antitubercular activity against dormant Mycobacterium smegmatis MC2 155 at 10 ug after 12 days by XTT-Menadione assay. It is filed as functional, str. MC2 155.
For assay [19], the system named is Mycolicibacterium smegmatis. Nature of the assay: Antitubercular activity against dormant Mycobacterium smegmatis MC2 155 at 3 ug after 12 days by XTT-Menadione assay. It is filed as functional, str. MC2 155.

By MIC is commonly meant the lowest concentration found to suppress growth.

Values after ≈ are worked out from the molar mass of the structure shown.

The molecule `CO[C@H]1/C=C/O[C@@]2(C)Oc3c(C)c(O)c4c(O)c(c(/C=N/N5CCN(C)CC5)c(O)c4c3C2=O)NC(=O)/C(C)=C\C=C\[C@H](C)[C@H](O)[C@@H](C)[C@@H](O)[C@@H](C)[C@H](OC(C)=O)[C@@H]1C` [RIFAMPIN] registered an MIC in [1] of 2.1 ng/mL (≈ 2.55 nM).

In the case of `Nc1nccnc1C(=O)NN1C(=O)CSC1c1ccc(F)cc1` (stereo unspecified), the “inhibition (INH)” value with Bacillus subtilis [2] is listed as 3.63%; in the assay on Bacillus subtilis [3], 21.54%; in assay [4], 68.04%; in the assay with Staphylococcus aureus [5], -50.49%; in the assay with Pseudomonas fluorescens [6], 42.8%; with Escherichia coli [7], 41.47%. Moreover, the “inhibition (INH)” value in the assay on Escherichia coli [8] came out at 45%; with Escherichia coli [9] it was 50.12%; in assay [10], 67.84%; in the assay on Pseudomonas fluorescens [11], 27.83%; in the assay on Bacillus subtilis [12], 14.29%; in [13] it was 71.96%. The “inhibition (INH)” value in the assay on Pseudomonas fluorescens [14] is listed as 40.76%; with Staphylococcus aureus [15], -14.5%; in the assay with Staphylococcus aureus [16], 8.99%; in assay [17], 37.72%; in [18] it was -3.707%; in assay [19] it was 28.7381%.

Turning to `Cc1cnc(C(=O)NN2C(=O)CSC2c2ccc(O)cc2)cn1` (stereo unspecified), the “inhibition (INH)” value with Bacillus subtilis [2] is 16.21%; in the assay with Bacillus subtilis [3] it was 19.81%; in [4] it was 64.79%; in the assay on Staphylococcus aureus [5] it was 6.02%; in the assay on Pseudomonas fluorescens [6] it was -20.73%; in the assay on Escherichia coli [7] it was -51.23%. The “inhibition (INH)” value was -32.72% with Escherichia coli [8]; 32.37% with Escherichia coli [9]; 70.55% in assay [10]; 29.07% with Pseudomonas fluorescens [11]; -6.172% in the assay on Bacillus subtilis [12]; 75.49% in assay [13]. For the same molecule, the “inhibition (INH)” value in the assay on Pseudomonas fluorescens [14] is on record as 29.13%; in the assay with Staphylococcus aureus [15] it was -7.09%; in the assay with Staphylococcus aureus [16], -4.04%; in [17], 7.295%; in assay [18], 15.78%; in [19], 30.34%.

Regarding `COc1ccc(C2SCC(=O)N2NC(=O)c2cnc(C)cn2)cc1` (stereo unspecified), the “inhibition (INH)” value is reported as 18.72% in the assay on Bacillus subtilis [2]; -8.08% in the assay with Bacillus subtilis [3]; 63.11% in assay [4]; -29.27% in the assay with Staphylococcus aureus [5]; 29.02% in the assay on Pseudomonas fluorescens [6]; 9.978% in the assay with Escherichia coli [7]. Further, the “inhibition (INH)” value was -9.96% with Escherichia coli [8]; 17.95% with Escherichia coli [9]; 65.76% in [10]; -0.838% in the assay on Pseudomonas fluorescens [11]; 19.31% in the assay with Bacillus subtilis [12]; 71.41% in assay [13]. The “inhibition (INH)” value with Pseudomonas fluorescens [14] is given as 19.06%; in the assay with Staphylococcus aureus [15] it was -9.85%; with Staphylococcus aureus [16], -29.6%; in assay [17] it was 27.97%; in [18] it was 11.4077%; in [19], 46.39%.

On to `CN(C)c1ccc(C2SCC(=O)N2NC(=O)c2nccnc2N)cc1` (stereo unspecified), for which the “inhibition (INH)” value in the assay on Bacillus subtilis [2] worked out at 0.43%; in the assay with Bacillus subtilis [3], 9.92%; in assay [4] it was 63.27%; in the assay with Staphylococcus aureus [5], 9.5%; with Pseudomonas fluorescens [6] it was 34.38%; with Escherichia coli [7] it was 49.71%. The “inhibition (INH)” value with Escherichia coli [8] was 62.03%; with Escherichia coli [9] it was 40.76%; in assay [10], 66.92%; in the assay with Pseudomonas fluorescens [11] it was 35.05%; with Bacillus subtilis [12] it was 3.21%; in assay [13] it was 69.04%. In addition, the “inhibition (INH)” value in the assay on Pseudomonas fluorescens [14] is on record as 22.64%; in the assay on Staphylococcus aureus [15], 31.97%; in the assay on Staphylococcus aureus [16] it was 56.34%; in assay [17] it was -93.9118%; in [18], 38.8231%; in [19], 34.15%.

Take `Nc1nccnc1C(=O)NN1C(=O)CSC1c1ccc(Cl)cc1` (stereo unspecified): the “inhibition (INH)” value is 2.22% with Bacillus subtilis [2]; -4.06% in the assay with Bacillus subtilis [3]; 62.36% in [4]; 14.12% in the assay with Staphylococcus aureus [5]; -17.98% in the assay on Pseudomonas fluorescens [6]; -8.913% in the assay on Escherichia coli [7]. The “inhibition (INH)” value in the assay on Escherichia coli [8] is listed as -65.92%; in the assay on Escherichia coli [9] it was 38.45%; in [10], 70.78%; in the assay on Pseudomonas fluorescens [11], 21.22%; in the assay with Bacillus subtilis [12], -14.42%; in assay [13], 72.85%. The “inhibition (INH)” value was 13.99% in the assay on Pseudomonas fluorescens [14]; 52.81% with Staphylococcus aureus [15]; -34.8% in the assay with Staphylococcus aureus [16]; 52.67% in assay [17]; 64.17% in assay [18]; 30.65% in assay [19].

`Cc1cnc(C(=O)NN2C(=O)CSC2c2ccc(Cl)cc2)cn1` (stereo unspecified): the “inhibition (INH)” value is given as -36.6% in the assay on Bacillus subtilis [2]; -5.89% in the assay on Bacillus subtilis [3]; 60.85% in assay [4]; -10.67% in the assay with Staphylococcus aureus [5]; 32.81% with Pseudomonas fluorescens [6]; 63.05% in the assay with Escherichia coli [7]. The “inhibition (INH)” value in the assay with Escherichia coli [8] is 64.64%; with Escherichia coli [9] it was 40.4%; in assay [10], 61.88%; in the assay with Pseudomonas fluorescens [11], 27.78%; in the assay with Bacillus subtilis [12] it was -0.29%; in assay [13], 62.27%. In addition, the “inhibition (INH)” value in the assay with Pseudomonas fluorescens [14] is given as 21.51%; with Staphylococcus aureus [15] it was -0.64%; in the assay with Staphylococcus aureus [16] it was 16.66%; in [17] it was -19.6759%; in [18] it was 24.29%; in assay [19], -84.5144%.

In the case of `Nc1nccnc1C(=O)NN1C(=O)CS[C@H]1c1ccc([N+](=O)[O-])cc1`, the “inhibition (INH)” value with Bacillus subtilis [2] is -19.53%; with Bacillus subtilis [3], -1.56%; in [4], 39.54%; in the assay with Staphylococcus aureus [5], -46.62%; in the assay with Pseudomonas fluorescens [6], -20.68%; with Escherichia coli [7], 42.143%. Further, the “inhibition (INH)” value with Escherichia coli [8] is on record as 57.79%; in the assay with Escherichia coli [9], 37.49%; in [10] it was 43%; in the assay on Pseudomonas fluorescens [11], 37.2%; in the assay with Bacillus subtilis [12], 0.25%; in assay [13], 49.69%. In addition, the “inhibition (INH)” value is on record as 24.31% with Pseudomonas fluorescens [14]; 16.74% in the assay on Staphylococcus aureus [15]; -21.02% in the assay on Staphylococcus aureus [16]; -10.9967% in assay [17]; -28.273% in [18]; 34.28% in assay [19].

`C[C@H]1COC2(CCN(c3nc(=O)c4cc(C(F)(F)F)cc([N+](=O)[O-])c4s3)CC2)O1` [BTZ-043] had an MIC in assay [1] of 3 ng/mL (≈ 6.95 nM).

For `O=C(NN1C(=O)CSC1c1ccc(O)cc1)c1cnccn1` (stereo unspecified), the “inhibition (INH)” value in the assay on Bacillus subtilis [2] was 1.8%; with Bacillus subtilis [3], -7.31%; in [4], 40.52%; with Staphylococcus aureus [5] it was 16.31%; in the assay on Pseudomonas fluorescens [6], 27.67%; in the assay with Escherichia coli [7], 41.07%. For the same molecule, the “inhibition (INH)” value in the assay with Escherichia coli [8] was 49.76%; in the assay with Escherichia coli [9], 39.38%; in [10], 45.24%; in the assay on Pseudomonas fluorescens [11], 9.87%; with Bacillus subtilis [12], -5.94%; in [13] it was 53.37%. Also, the “inhibition (INH)” value is 5.678% in the assay with Pseudomonas fluorescens [14]; 24.23% in the assay on Staphylococcus aureus [15]; 30.2% in the assay with Staphylococcus aureus [16]; 45.5719% in [17]; 31.9215% in assay [18]; 28.83% in [19].

As for `Nc1nccnc1C(=O)NN1C(=O)CSC1c1ccc(Cl)cc1Cl` (stereo unspecified), the “inhibition (INH)” value is 3.8% in the assay on Bacillus subtilis [2]; -11.3% with Bacillus subtilis [3]; 64.5% in [4]; -26.32% in the assay with Staphylococcus aureus [5]; 7.35% in the assay on Pseudomonas fluorescens [6]; -35.51% in the assay with Escherichia coli [7]. Moreover, the “inhibition (INH)” value with Escherichia coli [8] is 38.17%; with Escherichia coli [9], -146.6%; in [10], 68.91%; in the assay on Pseudomonas fluorescens [11], 14.82%; in the assay on Bacillus subtilis [12] it was -13.09%; in assay [13], 63.39%. Also, the “inhibition (INH)” value in the assay with Pseudomonas fluorescens [14] is listed as -6.12%; with Staphylococcus aureus [15] it was -35.91%; in the assay on Staphylococcus aureus [16] it was -52.82%; in [17], 33.52%; in [18], 55.96%; in [19] it was 42.73%.

For `NNC(=O)c1ccncc1` [ISONIAZID], inhibition of growth in [1] (MIC) required 75 ng/mL (≈ 547 nM).

`NC(=O)c1cnccn1` [PYRAZINAMIDE] registered an MIC in assay [1] greater than 10000 ng/mL.
